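Interpolation was linear, between the two tested concentrations surrounding the appropriate level; five concentrations were tested over 48 hours in 96-well plates. At the GI50, growth is halved.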 Activity calls are given as the source filed them. No stated cut-off is given here; in the data, active = GI50 up to about 1.1 µM and inactive = higher.
Assays:
Test in all cases: inhibition of tumour cell growth, NCI panel, 48 h
OVCAR-4 = tested on: OVCAR-4
SR = tested on: SR
KM12 = tested on: KM12
MOLT-4 = tested on: MOLT-4
OVCAR-3 = tested on: OVCAR-3
TK-10 = tested on: TK-10
NCI-H23 = tested on: NCI-H23
MDA-MB-231 = tested on: MDA-MB-231
OVCAR-8 = tested on: OVCAR-8
SNB-75 = tested on: SNB-75
UO-31 = tested on: UO-31
UACC-62 = tested on: UACC-62
SF-268 = tested on: SF-268
NCI-H522 = tested on: NCI-H522
HOP-62 = tested on: HOP-62
MDA-N = tested on: MDA-N
CAKI-1 = tested on: CAKI-1
HCT-15 = tested on: HCT-15
IGROV-1 = tested on: IGROV-1
PC-3 = tested on: PC-3
K562 = tested on: K562
A549 = tested on: A549
ACHN = tested on: ACHN
SK-OV-3 = tested on: SK-OV-3
NCI-H226 = tested on: NCI-H226
Hs-578T = tested on: Hs-578T
MCF7 = tested on: MCF7
RXF 393 = tested on: RXF 393
SNB-19 = tested on: SNB-19
RPMI-8226 = tested on: RPMI-8226
786-0 = tested on: 786-0
UACC-257 = tested on: UACC-257
NCI-H460 = tested on: NCI-H460
COLO 205 = tested on: COLO 205
HCC 2998 = tested on: HCC 2998
HL-60 = tested on: HL-60
HCT-116 = tested on: HCT-116
NCI/ADR-RES = tested on: NCI/ADR-RES
SK-MEL-28 = tested on: SK-MEL-28
A498 = tested on: A498
T47D = tested on: T47D
SW-620 = tested on: SW-620
DU-145 = tested on: DU-145
SF-295 = tested on: SF-295
MDA-MB-435 = tested on: MDA-MB-435
Malme-3M = tested on: Malme-3M
HOP-92 = tested on: HOP-92
LOX IMVI = tested on: LOX IMVI
BT-549 = tested on: BT-549
M14 = tested on: M14
U-251 = tested on: U-251
SN12C = tested on: SN12C
EKVX = tested on: EKVX
HT-29 = tested on: HT-29
SK-MEL-5 = tested on: SK-MEL-5
SF-539 = tested on: SF-539
SK-MEL-2 = tested on: SK-MEL-2
CCRF-CEM = tested on: CCRF-CEM
OVCAR-5 = tested on: OVCAR-5

Measured: GI50

CC(C)(C)OC(=O)N1CCc2c(n(C/C=C/c3ccccc3)[nH]c2=O)C1
inactive: OVCAR-4 97.1 µM | SR 35.5 µM | KM12 > 100 µM | MOLT-4 33.6 µM | OVCAR-3 > 100 µM | TK-10 > 81.3 µM | NCI-H23 > 100 µM | MDA-MB-231 > 100 µM | OVCAR-8 > 100 µM | SNB-75 > 100 µM | UO-31 61.2 µM | UACC-62 > 100 µM | SF-268 > 100 µM | NCI-H522 > 51.2 µM | HOP-62 > 80.7 µM | MDA-N > 100 µM | CAKI-1 > 100 µM | IGROV-1 > 100 µM | PC-3 > 100 µM | K562 46.6 µM | A549 > 100 µM | ACHN > 100 µM | SK-OV-3 > 100 µM | NCI-H226 > 100 µM | Hs-578T > 100 µM | MCF7 65.3 µM | RXF 393 > 100 µM | SNB-19 > 100 µM | RPMI-8226 95.5 µM | 786-0 > 100 µM | UACC-257 > 100 µM | NCI-H460 > 100 µM | COLO 205 > 70.6 µM | HCC 2998 > 100 µM | HL-60 27.8 µM | HCT-116 > 100 µM | NCI/ADR-RES 26.2 µM | SK-MEL-28 > 100 µM | A498 > 100 µM | T47D 46.7 µM | SW-620 > 100 µM | DU-145 > 87.9 µM | SF-295 > 100 µM | MDA-MB-435 > 100 µM | Malme-3M > 75.2 µM | HOP-92 > 53.5 µM | LOX IMVI > 100 µM | BT-549 > 100 µM | M14 > 100 µM | U-251 > 100 µM | SN12C > 100 µM | EKVX > 83.8 µM | HT-29 > 100 µM | SK-MEL-5 34.4 µM | SF-539 > 100 µM | SK-MEL-2 > 100 µM | CCRF-CEM 72.3 µM
> 100 µM: HCT-15

CCOC(=O)NC(Nc1ccc([N+](=O)[O-])cc1)(C(F)(F)F)C(F)(F)F
inactive: SR 34.2 µM | KM12 82.2 µM | MOLT-4 54.2 µM | OVCAR-3 65.8 µM | TK-10 69.8 µM | NCI-H23 > 100 µM | MDA-MB-231 94.2 µM | OVCAR-8 > 100 µM | SNB-75 > 100 µM | UO-31 27 µM | UACC-62 95.1 µM | SF-268 > 100 µM | NCI-H522 25.1 µM | HOP-62 > 100 µM | MDA-N 22 µM | CAKI-1 82.4 µM | IGROV-1 70.5 µM | PC-3 53.1 µM | K562 53.8 µM | A549 45 µM | ACHN > 100 µM | SK-OV-3 56.5 µM | NCI-H226 40.1 µM | Hs-578T 33.9 µM | MCF7 60.7 µM | RXF 393 12 µM | SNB-19 > 100 µM | RPMI-8226 99.3 µM | 786-0 > 100 µM | UACC-257 70.3 µM | NCI-H460 40.9 µM | COLO 205 > 100 µM | HCC 2998 > 100 µM | HL-60 54.1 µM | HCT-116 59.8 µM | NCI/ADR-RES 30.8 µM | SK-MEL-28 > 100 µM | A498 91.2 µM | T47D 58.3 µM | SW-620 > 100 µM | DU-145 > 100 µM | SF-295 > 100 µM | MDA-MB-435 21.3 µM | Malme-3M > 100 µM | HOP-92 31.1 µM | LOX IMVI 75.3 µM | OVCAR-5 > 100 µM | BT-549 96.2 µM | M14 60.4 µM | U-251 85.9 µM | SN12C > 100 µM | EKVX 75.5 µM | HT-29 > 100 µM | SK-MEL-5 81.3 µM | SF-539 > 100 µM | SK-MEL-2 > 100 µM | CCRF-CEM > 100 µM
70.6 µM: HCT-15

COc1ccc2ccc3oc(=O)c(C)cc3c2c1
inactive: OVCAR-4 > 100 µM | SR > 100 µM | KM12 > 100 µM | MOLT-4 > 100 µM | OVCAR-3 > 100 µM | TK-10 > 100 µM | NCI-H23 > 100 µM | MDA-MB-231 33.9 µM | OVCAR-8 > 100 µM | SNB-75 28.8 µM | UO-31 25.2 µM | UACC-62 10.9 µM | SF-268 > 100 µM | NCI-H522 > 100 µM | HOP-62 > 100 µM | MDA-N > 100 µM | CAKI-1 > 100 µM | IGROV-1 > 100 µM | PC-3 > 100 µM | K562 > 100 µM | A549 > 100 µM | ACHN > 100 µM | NCI-H226 > 100 µM | Hs-578T 78 µM | MCF7 > 100 µM | RXF 393 > 100 µM | SNB-19 > 100 µM | RPMI-8226 > 100 µM | 786-0 > 100 µM | UACC-257 > 100 µM | NCI-H460 > 100 µM | COLO 205 > 100 µM | HCC 2998 39.6 µM | HL-60 > 100 µM | HCT-116 > 100 µM | NCI/ADR-RES > 100 µM | SK-MEL-28 > 100 µM | A498 > 100 µM | T47D 43.3 µM | SW-620 > 100 µM | DU-145 > 100 µM | SF-295 > 100 µM | MDA-MB-435 > 100 µM | Malme-3M > 100 µM | HOP-92 > 10 µM | LOX IMVI > 100 µM | OVCAR-5 > 100 µM | BT-549 > 100 µM | M14 > 100 µM | U-251 > 100 µM | SN12C > 100 µM | EKVX 8.32 µM | HT-29 > 100 µM | SK-MEL-5 > 100 µM | SF-539 > 100 µM | SK-MEL-2 > 100 µM | CCRF-CEM > 100 µM
